Results from patent US20260234187A1, “ANTIMICROBIAL PEPTIDES” (MATERIAS S.R.L., priority 2020, published 2026).
Where two headings read alike, the source gives them in different places. Where no end group is shown, it is not given here.

Experiments:
[1] = kinetics of structural rearrangements by Circular Dichroism, secondary structure by BESTSEL and Dichroweb; format: physicochemical; settings: sodium acetate pH 4
Procedure: The structural and conformational characterization of the RiLK1 peptide was assessed by investigating its secondary structure by Circular Dichroism (CD) spectroscopy in the absence and in the presence of Sodium Dodecyl Sulfate (SDS) at a concentration of 3 mM to mimic the condition of the bacterial cell membrane.
The CD assays were performed with a Jasco J-810 spectropolarimeter equipped with a thermostated cuvette holder. The samples were loaded into a 0.1 cm long quartz cuvette (Hellma Analytics) and the spectrum was analysed in the range from 190 nm to 250 nm at room temperature for each sample.
The CD spectra were acquired at a scan rate of 20 nm/min, and the recorded results represent an average of 5 scans.
The mean residue ellipticity ([θ], degrees cm^2 dmol^−1) was calculated using the following equation: […]
The secondary structure was calculated through the DICHROWEB site (Whitmore L and Wallace B A, 2004, Nucleic Acids Research 32:668-673, Whitmore L and Wallace B A, 2008, Biopolymers 89:392-400, Lobley et al, 2002, Bioinformatics 18:211-212), using three different algorithms (SELCON3, CONTIN-LL and CDSSTR) (Sreerema N and Woody R W, 1993, Analytical Biochemistry 287:252-260) and selecting the SMP180 protein as the comparison data set, which includes a high number of spectra of soluble and membrane proteins (Abdul-Gader A et al, 2011, Bioinformatics 27:1630-1636).
The secondary structure was also calculated through the BETSEL site (Micsonai A. et al, 2018, Nucleic Acids Res. 46: W315-W322; Micsonai A. et al, 2015, Proc Natl Acad Sci USA; 112: E3095-E3103).
The kinetics of the structural rearrangements of the RiLK1 peptide were assessed over 24 hours by Circular Dichroism (CD) spectroscopy and fluorescence spectroscopy.
0.1 g/L of RiLK1 peptide was dissolved in 10 mM sodium acetate buffer at pH 4, in the absence or presence of 3 mM SDS.

[2] = format: physicochemical; parameters: α-helix (Bestsel) / β-sheet (Bestsel) / Random (Bestsel): unit not given here; settings: 3 mM SDS; for Random (CONTIN-LL) / α-helix (CONTIN-LL) / β-sheet (CONTIN-LL): after a 24-hour incubation
Procedure: 0.1 g/L of RiLK1 peptide was dissolved in 10 mM concentration solutions at different pHs, in particular: glycine-HCL buffer (pH 2); sodium acetate buffer (pH 4); tris-HCL buffer (pH 7); glycine-NaOH buffer (pH 9). After a 1-hour incubation at 25° C., samples of each solution containing 3 mM SDS were prepared.

Substance: RLKWVRIWRR-NH2 [RiLK1, RLKWVRIWRR]
- Random (Bestsel) ([1]; t = 0 w/ 3 mM SDS): 41.3%
- Random (DichroWeb CONTIN-LL) ([1]; t = 0 w/ 3 mM SDS): 40%
- α-helix (Bestsel) ([1]; t = 0 w/ 3 mM SDS): 7.4%
- α-helix (DichroWeb CONTIN-LL) ([1]; t = 0 w/ 3 mM SDS): 22%
- β-sheet (Bestsel) ([1]; t = 0 w/ 3 mM SDS): 51.4%
- β-sheet (DichroWeb CONTIN-LL) ([1]; t = 0 w/ 3 mM SDS): 38%
- Random (Bestsel) ([1]; t = 5 min w/ 3 mM SDS): 42.2%
- Random (DichroWeb CONTIN-LL) ([1]; t = 5 min w/ 3 mM SDS): 36%
- α-helix (Bestsel) ([1]; t = 5 min w/ 3 mM SDS): 4.4%
- α-helix (DichroWeb CONTIN-LL) ([1]; t = 5 min w/ 3 mM SDS): 22%
- β-sheet (Bestsel) ([1]; t = 5 min w/ 3 mM SDS): 53.4%
- β-sheet (DichroWeb CONTIN-LL) ([1]; t = 5 min w/ 3 mM SDS): 42%
- Random (Bestsel) ([1]; t = 30 min w/ 3 mM SDS): 40.3%
- Random (DichroWeb CONTIN-LL) ([1]; t = 30 min w/ 3 mM SDS): 37%
- α-helix (Bestsel) ([1]; t = 30 min w/ 3 mM SDS): 11%
- α-helix (DichroWeb CONTIN-LL) ([1]; t = 30 min w/ 3 mM SDS): 25%
- β-sheet (Bestsel) ([1]; t = 30 min w/ 3 mM SDS): 48.7%
- β-sheet (DichroWeb CONTIN-LL) ([1]; t = 30 min w/ 3 mM SDS): 38%
- Random (DichroWeb CONTIN-LL) ([1]; t = 1 h (60 min) w/ 3 mM SDS): 39%
- α-helix (DichroWeb CONTIN-LL) ([1]; t = 1 h (60 min) w/ 3 mM SDS): 23%
- β-sheet (DichroWeb CONTIN-LL) ([1]; t = 1 h (60 min) w/ 3 mM SDS): 38%
- Random (Bestsel) ([1]; t = 1 h w/ 3 mM SDS): 39.1%
- α-helix (Bestsel) ([1]; t = 1 h w/ 3 mM SDS): 9.8%
- β-sheet (Bestsel) ([1]; t = 1 h w/ 3 mM SDS): 51.1%
- Random (DichroWeb CONTIN-LL) ([1]; t = 5 h (300 min) w/ 3 mM SDS): 38%
- α-helix (DichroWeb CONTIN-LL) ([1]; t = 5 h (300 min) w/ 3 mM SDS): 19%
- β-sheet (DichroWeb CONTIN-LL) ([1]; t = 5 h (300 min) w/ 3 mM SDS): 43%
- Random (Bestsel) ([1]; t = 5 h w/ 3 mM SDS): 39.3%
- α-helix (Bestsel) ([1]; t = 5 h w/ 3 mM SDS): 6.7%
- β-sheet (Bestsel) ([1]; t = 5 h w/ 3 mM SDS): 54%
- Random (DichroWeb CONTIN-LL) ([1]; t = 6 h (360 min) w/ 3 mM SDS): 37%
- α-helix (DichroWeb CONTIN-LL) ([1]; t = 6 h (360 min) w/ 3 mM SDS): 19%
- β-sheet (DichroWeb CONTIN-LL) ([1]; t = 6 h (360 min) w/ 3 mM SDS): 44%
- Random (Bestsel) ([1]; t = 6 h w/ 3 mM SDS): 40.1%
- α-helix (Bestsel) ([1]; t = 6 h w/ 3 mM SDS): 8%
- β-sheet (Bestsel) ([1]; t = 6 h w/ 3 mM SDS): 52%
- Random (Bestsel) ([1]; t = 24 h w/ 3 mM SDS): 38%
- Random (DichroWeb CONTIN-LL) ([1]; t = 24 h w/ 3 mM SDS): 24%
- α-helix (Bestsel) ([1]; t = 24 h w/ 3 mM SDS): 8.4%
- α-helix (DichroWeb CONTIN-LL) ([1]; t = 24 h w/ 3 mM SDS): 29%
- β-sheet (Bestsel) ([1]; t = 24 h w/ 3 mM SDS): 53.6%
- β-sheet (DichroWeb CONTIN-LL) ([1]; t = 24 h w/ 3 mM SDS): 47%
- Random (Bestsel) ([1]; w/o 3 mM SDS): 51.5%
- Random (DichroWeb CONTIN-LL) ([1]; w/o 3 mM SDS): 61%
- α-helix (Bestsel) ([1]; w/o 3 mM SDS): 1.2%
- α-helix (DichroWeb CONTIN-LL) ([1]; w/o 3 mM SDS): 4%
- β-sheet (Bestsel) ([1]; w/o 3 mM SDS): 47.3%
- β-sheet (DichroWeb CONTIN-LL) ([1]; w/o 3 mM SDS): 35%
- Random (Bestsel) ([2]; pH 2, t = 0): 44.4
- Random (DichroWeb CONTIN-LL) ([2]; pH 2, t = 0): 39%
- α-helix (Bestsel) ([2]; pH 2, t = 0): 18.5
- α-helix (DichroWeb CONTIN-LL) ([2]; pH 2, t = 0): 22%
- β-sheet (Bestsel) ([2]; pH 2, t = 0): 37
- β-sheet (DichroWeb CONTIN-LL) ([2]; pH 2, t = 0): 39%
- Random (Bestsel) ([2]; pH 2, t = 24 hours): 44.3
- Random (DichroWeb CONTIN-LL) ([2]; pH 2, t = 24 hours): 39%
- α-helix (Bestsel) ([2]; pH 2, t = 24 hours): 13.2
- α-helix (DichroWeb CONTIN-LL) ([2]; pH 2, t = 24 hours): 17%
- β-sheet (Bestsel) ([2]; pH 2, t = 24 hours): 42.5
- β-sheet (DichroWeb CONTIN-LL) ([2]; pH 2, t = 24 hours): 44%
- Random (Bestsel) ([2]; pH 4, t = 0): 52.4
- Random (DichroWeb CONTIN-LL) ([2]; pH 4, t = 0): 36%
- α-helix (Bestsel) ([2]; pH 4, t = 0): 7.7
- α-helix (DichroWeb CONTIN-LL) ([2]; pH 4, t = 0): 23%
- β-sheet (Bestsel) ([2]; pH 4, t = 0): 39.8
- β-sheet (DichroWeb CONTIN-LL) ([2]; pH 4, t = 0): 41%
- Random (Bestsel) ([2]; pH 4, t = 24 hours): 41.2
- Random (DichroWeb CONTIN-LL) ([2]; pH 4, t = 24 hours): 35%
- α-helix (Bestsel) ([2]; pH 4, t = 24 hours): 13.3
- α-helix (DichroWeb CONTIN-LL) ([2]; pH 4, t = 24 hours): 24%
- β-sheet (Bestsel) ([2]; pH 4, t = 24 hours): 45.5
- β-sheet (DichroWeb CONTIN-LL) ([2]; pH 4, t = 24 hours): 41%
- Random (Bestsel) ([2]; pH 7, t = 0): 45.4
- Random (DichroWeb CONTIN-LL) ([2]; pH 7, t = 0): 36%
- α-helix (Bestsel) ([2]; pH 7, t = 0): 15
- α-helix (DichroWeb CONTIN-LL) ([2]; pH 7, t = 0): 25%
- β-sheet (Bestsel) ([2]; pH 7, t = 0): 39.5
- β-sheet (DichroWeb CONTIN-LL) ([2]; pH 7, t = 0): 39%
- Random (Bestsel) ([2]; pH 7, t = 24 hours): 40.8
- Random (DichroWeb CONTIN-LL) ([2]; pH 7, t = 24 hours): 37%
- α-helix (Bestsel) ([2]; pH 7, t = 24 hours): 15.5
- α-helix (DichroWeb CONTIN-LL) ([2]; pH 7, t = 24 hours): 19%
- β-sheet (Bestsel) ([2]; pH 7, t = 24 hours): 43.8
- β-sheet (DichroWeb CONTIN-LL) ([2]; pH 7, t = 24 hours): 44%
- Random (Bestsel) ([2]; pH 9, t = 0): 44.4
- Random (DichroWeb CONTIN-LL) ([2]; pH 9, t = 0): 39%
- α-helix (Bestsel) ([2]; pH 9, t = 0): 13.7
- α-helix (DichroWeb CONTIN-LL) ([2]; pH 9, t = 0): 19%
- β-sheet (Bestsel) ([2]; pH 9, t = 0): 42
- β-sheet (DichroWeb CONTIN-LL) ([2]; pH 9, t = 0): 42%
- Random (Bestsel) ([2]; pH 9, t = 24 hours): 42.9
- Random (DichroWeb CONTIN-LL) ([2]; pH 9, t = 24 hours): 24%
- α-helix (Bestsel) ([2]; pH 9, t = 24 hours): 13.4
- α-helix (DichroWeb CONTIN-LL) ([2]; pH 9, t = 24 hours): 29%
- β-sheet (Bestsel) ([2]; pH 9, t = 24 hours): 43.8
- β-sheet (DichroWeb CONTIN-LL) ([2]; pH 9, t = 24 hours): 47%
- Random (CONTIN-LL) ([2]; Table 8: pH 2): 39%
- α-helix (CONTIN-LL) ([2]; Table 8: pH 2): 22%
- β-sheet (CONTIN-LL) ([2]; Table 8: pH 2): 39%
- Random (CONTIN-LL) ([2]; Table 8: pH 4): 36%
- α-helix (CONTIN-LL) ([2]; Table 8: pH 4): 23%
- β-sheet (CONTIN-LL) ([2]; Table 8: pH 4): 41%
- Random (CONTIN-LL) ([2]; Table 8: pH 7): 36%
- α-helix (CONTIN-LL) ([2]; Table 8: pH 7): 25%
- β-sheet (CONTIN-LL) ([2]; Table 8: pH 7): 39%
- Random (CONTIN-LL) ([2]; Table 8: pH 9): 39%
- α-helix (CONTIN-LL) ([2]; Table 8: pH 9): 19%
- β-sheet (CONTIN-LL) ([2]; Table 8: pH 9): 42%
